Test: Stability in formulation: creatine in oil-in-water emulsion stored at 45° C.
Type: physicochemical
Description: 1.5% of the microcapsules from Example 4 were stirred into an oil-in-water emulsion and stored at T=45° C.

## CN(CC(=O)O)C(=N)N [Free creatine, creatine]
0 weeks
  creatine [%]: 100%
Stored at T=45° C., 5 weeks
  creatine [%]: 40%

Reference: patent publication US20080274149A1, “Encapsulation and Controlled Release of Biologically Active Ingredients with Enzymatically Degradable Microparticulate, Hyperbranched Polymers” (priority 2005, published 2008)
